Values of other authors as cited in patent publication US20160303177A1, “NUTRITIONAL SUPPLEMENT” (priority 2015, published 2016).

Experiments:
[1] = 600 mg prior to exercise
[2] = 400 mg at three times per day
[3] = washout period
[4] = training in set of 8-15 repetitions
[5] = 300 mg per day
[6] = given before animals were cardiac stressed
[7] = 5 grams at three times a day along with other medications
[8] = 17.25 grams per day, cyclists
[9] = 300 mgs of EGCG
[10] = two grams of L-Carnitine with 80 mg of carbohydrates
[11] = diseased hearts, 3 grams a day
[12] = 1500 mg per day for 6 weeks, mild to moderate erectile dysfunction
[13] = 8 grams of L-Citrulline with 10 grams of carbohydrate
[14] = 6 grams
[15] = 11.2 mmol/kg of nitrate
[16] = 500 milligrams of nitrate, runners
[17] = healthy individuals

In the case of `C[N+](C)(C)CCOP(=O)([O-])OC[C@H](O)CO` [Alpha GPC, Alpha Glycerylphosphorylcholine], the “peak increase in peak force production during resistance exercise” value [1] is listed as 14% and the “cognition in mild to moderate Alzheimer's dementia” value [2] is listed as “cognitive improvement”.
In the case of `NCCC(=O)O` [Beta-Alanine], the “time after supplementation still in the muscles at higher levels” value [3] is listed as 8 weeks and the “additional reps in the gym” value [4] is listed as “one to two additional reps”.
For `COC1=C(OC)C(=O)C(C/C=C(\C)CC/C=C(\C)CC/C=C(\C)CC/C=C(\C)CC/C=C(\C)CC/C=C(\C)CC/C=C(\C)CC/C=C(\C)CC/C=C(\C)CCC=C(C)C)=C(C)C1=O` [CoQ 10, Coenzyme Q10], the fatigue during exertion [5] is listed as “reduce fatigue during the late portions of exertion”, the half-life (in vivo) is listed as 5.8 to 8.10 h and the “increase in CoQ10 concentrations” value (supplementation with 90-120 mg) is listed as 50-150%.
For `O=C[C@H](O)[C@H](O)[C@H](O)CO` [D-Ribose], the “held out longer before ischemia compared to placebo” value [6] is given as 25%, the fibromyalgia symptoms [7] is given as “marked decrease in symptoms” and the “rates of ATP production” value [8] is given as “increased the rates of ATP production back to pre-exercise levels”.
In the case of `O=C(O[C@@H]1Cc2c(O)cc(O)cc2O[C@@H]1c1cc(O)c(O)c(O)c1)c1cc(O)c(O)c(O)c1` [EGCG, epigallocatechin gallate], the “source of energy when taken with a meal” value [9] is given as “a greater proportion of energy comes from dietary fat rather than carbohydrate”.
In the case of `C[N+](C)(C)C[C@H](O)CC(=O)[O-]` [L-Carnitine], the fat burning [10] is given as “increased fat burning” and the “increase in muscle carnitine content” value [10] is given as 21%.
In the case of `NC(=O)NCCC[C@H](N)C(=O)O` [L-Citrulline], the blood pressure [11] is given as “decrease in blood pressure”, the exercise abilities [11] is given as “increase in exercise abilities” and the “right ventricular ejection fraction” value [11] is given as “increase in right ventricular ejection fraction”. For the same compound, the “men with increase in erection hardness” value [12] was 50%, the delay in fatigue [13] was “statistically significant delay in fatigue” and the ATP production [14] was “increased ATP production”. The ammonia production [14] was “reduced ammonia production”, the muscle protein synthesis [14] was “increased muscle protein synthesis” and the “reduction of creatine depletion” value [14] was 28%.
In the case of `O=[N+]([O-])O` [nitrate], the “reduction of oxygen muscle extraction” value [15] is given as 19%, the “improvement of 5K time” value [16] is given as 41 s and the “reduced VO2 (oxygen consumption)” value ([17]; 0.1 mmol/kg of nitrate) is given as 5.4%. The “increase in time to fatigue” value ([17]; 6.2 mmol/kg of nitrate) was 15% and the “increase in energy efficiency” value [17] was 7.1%.
